Assay results published in article PMC3236199, “Development of Derivatives of 3, 3′-Diindolylmethane as Potent Leishmania donovani Bi-Subunit Topoisomerase IB Poisons” (PLoS ONE, 2011).

How the values were obtained:
[1] = system: L. donovani topoisomerase I; assay: Immunoband depletion assay, topoisomerase I; format: cell-based, Leishmania donovani; details: 20 µM, 6 h incubation, promastigotes
Procedure: Leishmania cells (3×10^7) were cultured in absence and presence of the drugs. Nuclear fractions were isolated as described. Briefly, cells were suspended in hypotonic buffer (10 mM Tris-HCl, pH 7.5, 1 mM EDTA, 0.1 mM EGTA, 1 mM PMSF, 1 mM benzamidine hydrochloride and 5 mM DTT) and homogenized. The homogenate was centrifuged for 10 min at 10,000 g. The pellets were washed and used as the source of nuclear fraction. Thereafter, the nuclear fractions were lysed with 1% SDS and subjected to SDS-PAGE (10%). The proteins were electrophoretically transferred to nitrocellulose membranes and immumobloting of immobilized proteins were carried out using a rabbit polyclonal antibody raised against LdTOP1S for topoisomerase I and ATPase domain of L. donovani topoisomerase II [8].
We have reported earlier that DIM induces topoisomerase I and not topoisomerase II-mediated cleavable complex formation in L. donovani. To investigate the ability of DIM derivatives to induce in vivo covalent complex formation between topoisomerase I and DNA in the Leishmania parasites we performed the immunoband depletion experiments with L. donovani promastigotes. Nuclear fractions were prepared from untreated as well as drug-treated promastigotes and subjected to SDS-PAGE. If topoisomerase I can form a covalent complex with genomic DNA inside the cells, then topoisomerase I-DNA cleavable complex cannot enter into the gel. […] The presence of topoisomerase I was detected by immunoblotting as described in ‘Materials and Methods’. It was observed that the immunoband of topoisomerase I disappeared in presence of 20 µM of DIM, DPDIM, DMDIM and DMODIM for 6 h incubation respectively (lanes 2–5). […] It should be mentioned here that topoisomerase I of Leishmania is a heterodimer and the catalytic site (SKXXY) is present in the small subunit of enzyme (LdTOP1S), which is involved in the formation of topoisomerase I-DNA covalent complex. So we have used the antibody raised against the small subunit of L. donovani topoisomerase I to study the immunoband depletion assay.
Figure 6 DIM-derivatives induce in vivo formation of topoisomerase-DNA cleavable complex within the cells. Stabilization of topoisomerase-I mediated cleavable complex was determined by immunoband depletion assay. Top panel: Immunoband depletion of L. donovani topoisomerase I, using an antibody raised against […]. Leishmanial cells were treated with 0.2% DMSO alone (lane 1), 20 µM each of DIM (lane 2), DPDIM (lane 3), DMDIM (lane 4) and DMODIM (lane 5) respectively. Lanes 6–9, preincubation with 20 µM DHBA before treatment with DIM, DPDIM, DMDIM and DMODIM respectively. Bottom panel: β-tubulin loading control.

LdTOP1LS = assay: Equilibrium (duplex oligonucleotide) cleavage assay, wild type enzyme; format: biochemical, Leishmania donovani; details: 20 µM, with respect to cleavable complex formed without drug with wild type enzyme
Procedure: The 25-mer oligonucleotide 1 (5′-GAAAAAAGACTT↓AGAAAAATTTTTA-3′) was 5′-end labeled with [γ^32P] ATP and annealed with oligonucleotide 2 (5′-[…]-3′) to make a duplex oligonucleotide containing a topoisomerase I binding motif as described. Cleavage assay was carried out using 20-fold molar excess of enzymes over duplex 25-mer DNA (enzymes, 0.2 µM; DNA, 10 nM). The reactions were carried out in standard assay condition in the absence or presence of drugs at 37°C for 30 min. All the reactions were stopped by addition of SDS to a final concentration of 2% (w/v), digested with 5 µl of 1 mg/ml trypsin and analyzed by 12% denaturing polyacrylamide gel followed by autoradiography. The amount of strand cleavage in the presence of drugs was determined by densitometry of the film as described.
The effect of DIM and its derivatives on L. donovani topoisomerase I was examined by plasmid DNA cleavage assay as described. The topoisomerase reaction has three general mechanistic steps: (i) binding of enzyme to the substrate DNA, (ii) single strand breakage and subsequent strand rotation through the break leading to change in linking number, and (iii) strand religation. The second step of reaction is the introduction of a single-stranded nick in the phosphodiester bond of the DNA, through which an intact strand is allowed to pass. During this process, a covalent bond is formed between the 3′-phosphoryl group of the DNA backbone and the tyrosine residue at the active site of topoisomerase I. Topoisomerase inhibition can be achieved by prevention of enzyme-DNA binary complex formation or by stabilization of enzyme-DNA cleavable complex. To investigate the ability of DIM-derivatives to stabilize the cleavable complex formation between enzyme and oligonucleotide containing a topoisomerase IB specific binding motif we carried out plasmid cleavage assay as described previously. Cleavage assay was performed with LdTOP1LS and pHOT1 DNA containing a topoisomerase IB specific binding motif as described in ‘Materials and Methods’. […]

Row | Structure (SMILES) | immunoband of topoisomerase I [1] | extent of cleavage (LdTOP1LS)
1 | c1ccc2c(Cc3c[nH]c4ccccc34)c[nH]c2c1 [DIM, 3, 3′-diindolyl methane, reference compound] | disappeared | 
2 | c1ccc(-c2[nH]c3ccccc3c2Cc2c(-c3ccccc3)[nH]c3ccccc23)cc1 [DPDIM, 2,2′-diphenyl 3,3′-diindolyl methane] | disappeared | 67%
3 | COc1ccc2[nH]cc(Cc3c[nH]c4ccc(OC)cc34)c2c1 [DMODIM, 5,5′-dimethoxy 3,3′-diindolyl methane] | disappeared | ~56%
4 | Cc1[nH]c2ccccc2c1Cc1c(C)[nH]c2ccccc12 [DMDIM, 2,2′-dimethyl 3,3′-diindolyl methane] | disappeared | approximately 61%
